Experiments:
Experiment in all cases: relative viability (nuclei count vs DMSO), 5 days (fraction); higher = more cells survive
[1] = compound: C1=CC=C2C(=C1)C=CC(=C2SSC3=C(C=CC4=CC=CC=C43)O)O [IPA-3] + CCNC(=O)c1noc(-c2cc(C(C)C)c(O)cc2O)c1-c1ccc(CN2CCOCC2)cc1 [Luminespib] (partner 0.01 µM)
Summary of the method: (§1)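 Lung cancer cell lines in 1536-well plates were dosed by pin tool the day after seeding, either with one drug alone or with a fixed anchor-drug dose plus five library-drug doses (not always all listed) in √10 steps. After 5 days, cells were fixed and their nuclei stained in one step (final 0.05% Triton X-100, 1% formaldehyde, 1 ug/ml Hoechst), then counted on 4× images. Relative viability is the nuclei count in treated wells divided by that in vehicle wells. Values are medians of duplicate plates.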

[2] = compound: Cc1ccc(-n2nc(C(C)(C)C)cc2NC(=O)Nc2ccc(OCCN3CCOCC3)c3ccccc23)cc1 [Doramapimod] + N=C(N)NC(=N)NCCc1ccccc1 [Phenformin] (partner 250 µM)
Summary of the method: as §1

[3] = compound: Cc1ccc(-n2nc(C(C)(C)C)cc2NC(=O)Nc2ccc(OCCN3CCOCC3)c3ccccc23)cc1 [Doramapimod] + Cc1cc(Nc2cc(N3CCN(C)CC3)nc(Sc3ccc(NC(=O)C4CC4)cc3)n2)n[nH]1 [Tozasertib] (partner 0.1 µM)
Summary of the method: as §1

[4] = compound: Cc1ccc(-n2nc(C(C)(C)C)cc2NC(=O)Nc2ccc(OCCN3CCOCC3)c3ccccc23)cc1 [Doramapimod] + NC(=O)Nc1cc(-c2cccc(F)c2)sc1C(=O)N[C@H]1CCCNC1 [AZD7762] (partner 0.2 µM)
Summary of the method: as §1

Cell Line	relative viability ([1]; first compound 0.2 µM)	relative viability ([1]; first compound 0.6325 µM)	relative viability ([1]; first compound 2 µM)	relative viability ([1]; first compound 6.325 µM)	relative viability ([1]; first compound 20 µM)	relative viability ([2]; first compound 0.02 µM)	relative viability ([2]; first compound 0.06325 µM)	relative viability ([2]; first compound 0.2 µM)	relative viability ([2]; first compound 0.6325 µM)	relative viability ([2]; first compound 2 µM)	relative viability ([3]; first compound 0.02 µM)	relative viability ([3]; first compound 0.06325 µM)	relative viability ([3]; first compound 0.2 µM)	relative viability ([3]; first compound 0.6325 µM)	relative viability ([3]; first compound 2 µM)	relative viability ([4]; first compound 0.02 µM)	relative viability ([4]; first compound 0.06325 µM)	relative viability ([4]; first compound 0.2 µM)	relative viability ([4]; first compound 0.6325 µM)	relative viability ([4]; first compound 2 µM)
201T	1.07	1.02	1.08	1.05	1.14	0.453	0.471	0.448	0.497	0.394	0.914	0.918	0.935	1.05	0.906	0.516	0.562	0.447	0.504	0.341
A549	–	–	–	–	–	0.177	0.165	0.126	0.136	0.132	–	–	–	–	–	–	–	–	–	–
A-427	1.02	0.855	0.999	0.803	1.02	0.269	0.464	0.388	–	0.318	0.248	0.216	0.218	–	0.189	0.77	0.732	0.743	–	0.561
ABC-1	0.723	–	0.573	–	0.29	0.208	0.232	0.278	0.281	0.221	0.235	0.228	0.183	0.189	0.123	0.761	0.674	0.874	0.794	0.674
BEN	0.387	0.439	0.386	0.576	0.472	0.29	0.245	0.27	0.242	0.278	0.533	0.402	0.499	0.325	0.429	0.58	0.724	0.72	0.597	0.681
CAL-12T	0.724	0.287	0.449	0.375	0.488	0.552	0.593	0.621	0.625	0.479	0.298	0.341	0.338	0.272	0.315	0.675	0.765	0.696	0.596	0.535
COR-L23	0.866	0.627	0.725	0.643	0.48	0.436	0.467	0.398	0.422	0.391	0.268	0.22	0.173	0.178	0.176	–	–	–	–	–
COR-L 105	0.866	0.858	0.771	0.826	0.97	0.513	0.461	0.443	0.619	0.453	0.409	0.342	0.376	0.35	0.365	–	–	–	–	–
ChaGo-K-1	0.734	0.539	0.58	0.632	0.58	0.476	0.507	0.459	0.534	0.428	0.225	0.227	0.229	0.215	0.217	0.884	0.846	0.894	0.779	0.768
EKVX	0.826	0.781	0.867	0.938	1.01	0.256	0.24	0.253	0.179	0.204	0.324	0.385	0.43	0.336	0.341	0.679	0.676	0.717	0.635	0.678
EMC-BAC-2	1.13	1.04	1.2	1.2	1.21	0.53	0.606	0.586	0.678	0.503	0.284	0.286	0.272	0.304	0.238	1.07	1.16	1.07	1.07	0.965
EPLC-272H	0.469	0.473	0.352	0.416	0.553	0.294	0.243	0.356	0.291	0.274	0.319	0.275	0.441	0.29	0.246	0.209	0.209	0.254	–	0.22
H3255	1.03	0.757	0.782	0.871	0.889	0.356	0.345	0.391	0.366	0.411	0.688	0.65	0.669	0.602	0.452	1.01	1	0.972	0.956	0.762
HARA	0.991	0.767	0.0423	0.889	1.08	0.464	0.495	0.464	–	0.425	0.128	0.112	0.106	–	0.107	0.341	0.235	0.397	0.536	0.213
HCC-15	0.625	0.209	0.253	0.514	0.417	0.481	0.467	0.478	–	0.365	0.401	0.343	0.414	–	0.309	1.35	1.17	1.23	–	1.17
HCC-44	1.12	0.995	1.21	0.947	1.25	0.267	0.247	0.22	–	0.241	0.961	1.01	1.19	0.913	0.84	1.06	1.02	1.04	1.01	1.07
HCC-78	–	–	–	–	–	0.704	0.819	0.743	0.813	0.543	0.404	0.537	0.291	0.471	0.402	0.518	0.642	0.705	0.756	0.75
HCC-366	–	–	–	–	–	0.623	0.605	0.671	0.635	0.547	0.117	0.129	0.15	0.0878	0.0672	0.387	0.271	0.33	0.34	0.213
HCC-827	0.881	0.588	0.627	0.67	0.745	0.418	0.416	0.376	0.432	0.286	0.422	0.414	0.422	0.375	0.356	0.281	0.3	0.195	0.588	0.116
HOP-62	1.12	0.919	0.963	0.855	1.11	0.685	0.706	0.753	0.682	0.646	0.386	0.356	0.382	0.424	0.28	0.629	0.676	0.585	0.647	0.651

Cell Line	relative viability ([1]; first compound 0.2 µM)	relative viability ([1]; first compound 0.6325 µM)	relative viability ([1]; first compound 2 µM)	relative viability ([1]; first compound 6.325 µM)	relative viability ([1]; first compound 20 µM)	relative viability ([2]; first compound 0.02 µM)	relative viability ([2]; first compound 0.06325 µM)	relative viability ([2]; first compound 0.2 µM)	relative viability ([2]; first compound 0.6325 µM)	relative viability ([2]; first compound 2 µM)	relative viability ([3]; first compound 0.02 µM)	relative viability ([3]; first compound 0.06325 µM)	relative viability ([3]; first compound 0.2 µM)	relative viability ([3]; first compound 0.6325 µM)	relative viability ([3]; first compound 2 µM)	relative viability ([4]; first compound 0.02 µM)	relative viability ([4]; first compound 0.06325 µM)	relative viability ([4]; first compound 0.2 µM)	relative viability ([4]; first compound 0.6325 µM)	relative viability ([4]; first compound 2 µM)
LC-2-ad	1.21	1.06	1.07	1.04	1.05	0.571	0.619	0.641	0.517	0.487	0.447	0.444	0.448	0.413	0.484	0.826	0.916	0.874	0.988	0.84
LCLC-97TM1	0.99	0.733	0.608	0.855	0.783	0.456	0.424	0.488	0.38	0.269	0.22	0.228	0.21	0.266	0.142	0.323	0.328	0.289	0.168	0.304
LCLC-103H	1.09	1	0.916	0.929	0.926	0.322	0.345	0.298	0.322	0.32	0.431	0.529	0.388	0.544	0.432	0.908	0.78	0.795	0.978	0.762
LK-2	0.179	0.193	0.17	0.189	0.222	0.278	0.332	0.382	0.282	0.246	0.186	0.182	0.18	0.179	0.192	0.347	0.216	0.298	0.258	0.165
LOU-NH91	0.326	0.26	0.332	0.33	0.358	0.76	0.671	0.735	0.774	0.417	0.715	0.66	0.798	0.76	0.488	0.757	0.739	0.7	0.744	0.575
NCI-H520	0.213	0.3	0.266	0.244	0.247	0.632	0.62	0.533	0.492	0.346	0.483	0.441	0.402	0.42	0.382	–	–	–	–	–
NCI-H661	0.911	0.874	0.919	0.866	0.921	0.297	0.272	0.274	0.289	0.308	0.36	0.353	0.342	0.366	0.346	–	–	–	–	–
NCI-H1563	0.514	0.526	0.532	0.512	0.437	0.653	0.682	0.653	0.806	0.739	–	–	–	–	–	–	–	–	–	–
NCI-H1623	0.574	0.481	0.675	0.516	0.556	0.635	0.636	0.57	0.354	0.544	0.424	0.426	0.411	0.46	0.318	–	–	–	–	–
NCI-H1648	–	–	–	–	–	–	–	–	–	–	0.442	0.498	0.58	0.353	0.481	0.653	0.695	0.63	0.548	0.59
NCI-H1650	0.193	0.179	0.218	0.208	0.191	0.464	0.419	0.482	0.655	0.233	0.416	0.408	0.395	0.382	0.357	–	–	–	–	–
NCI-H1703	–	–	–	–	–	–	–	–	–	–	–	–	–	–	–	–	0.118	0.108	0.0991	0.113
NCI-H1792	0.475	0.529	0.418	0.38	0.615	0.389	0.381	0.217	0.476	0.214	–	–	–	–	–	0.43	0.89	0.842	0.618	0.434
NCI-H2009	1.06	1.04	1.07	0.941	1.06	0.506	0.543	0.546	0.478	0.408	0.727	0.799	0.696	0.663	0.556	–	–	–	–	–
NCI-H2023	0.93	0.617	0.674	0.712	0.693	0.413	0.379	0.404	0.415	0.323	0.333	0.352	0.3	0.304	0.247	–	–	–	–	–
NCI-H2228	0.155	0.181	0.183	0.175	0.145	0.249	0.385	0.273	0.333	0.27	0.263	0.296	0.258	0.263	0.242	–	–	–	–	–
SK-LU-1	0.207	0.17	0.225	0.161	0.228	0.613	0.516	0.542	0.61	0.46	0.348	0.41	0.314	0.347	0.277	–	–	–	–	–
SK-MES-1	0.753	0.691	0.831	0.782	0.808	0.634	0.648	0.648	0.628	0.568	0.94	0.869	0.81	0.856	0.781	–	–	–	–	–
SW 1573	0.139	0.215	0.459	0.158	0.0643	0.355	0.304	0.306	0.301	0.236	0.267	0.208	0.198	0.22	0.157	–	–	–	–	–
